Laboratory results taken from patent US10208074B2, “Pyrazole compounds and method for making and using the compounds” (Rigel Pharmaceuticals, Inc., priority 2015, dated 2019).
Structures can show the parent of a compound that is named as a salt. Where two headings read alike, the source gives them in different places.

Key:
IL-23 (p19/p40) = assay: IL23-p19 ELISA, Dendritic, LPS (compound screening using DC cells); format: cell-based, Human
In short: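 Human PBMC-derived dendritic cells (7 d GM-CSF 100 ng/ml + IL-4 20 ng/ml), primed 24 h with IFNγ 50 ng/ml, pre-incubated 1 h with compound, then stimulated 18 h with LPS 1 μg/ml. Supernatant IL-23 measured by p19-capture/p40-detection chemiluminescent ELISA; CellTiter Glo checks cytotoxicity.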

IL-23p19 = assay: LPS induced IL23p19 in THP-1 cells (with IFNγ primed) assay; format: cell-based, Human
In short: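 THP-1 cells primed ~18 h with IFNγ (50 ng/mL), pre-incubated 1 h with compound at 37 °C, then stimulated 18 h with LPS (1 ug/mL final). Supernatant IL-23p19 measured by sandwich ELISA with chemiluminescent read-out; EC50 from curve fitting. Toxicity checked on the remaining cells by Cell Titer Glo.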

[1] = Homo sapiens, THP-1, 18 h, THP-1 cells, IFNγ primed, LPS 1 ug/mL, 18 hours, 10 pt, read-out: IL23-p19 ELISA, THP1-IFNy, LPS, 10 pt EC50
[2] = Homo sapiens, 18 h, PBMC-derived DC cells, IFNγ primed, LPS 1 μg/ml, 18 hours, 10 pt, read-out: IL23-p19 ELISA, Dendritic, LPS, 10 pt, EC50

EC50 (IL-23p19; [1]) [µM] | EC50 (IL-23 (p19/p40); [2]) [µM] | SMILES | also measured
0.144 |  | CCOCCn1cc(NC(=O)c2ccc(-c3cn[nH]c3)o2)c(-c2ccccn2)n1 [Compound I-37, N-(1-(2-ethoxyethyl)-3-(pyridin-2-yl)-1H-pyrazol-4-yl)-5-(1H-pyrazol-4-yl)furan-2-carboxamide formate] | EC50 (IL-23 (p19/p40); PBMC-derived DC cells, IFNγ primed, LPS 1 μg/ml, 18 hours, 10 pt, formate, read-out: IL23-p19 ELISA, Dendritic, LPS, 10 pt, EC50): 0.0174 µM
0.0861 | 0.307 | Cc1oc(=O)oc1Cn1cc(-c2nc(C(=O)Nc3cn(C)nc3-c3ccccn3)cs2)cn1 [II-4, 2-(1-((5-methyl-2-oxo-1,3-dioxol-4-yl)methyl)-1H-pyrazol-4-yl)-N-(1-methyl-3-(pyridin-2-yl)-1H-pyrazol-4-yl)thiazole-4-carboxamide] | 
0.0561 | 0.226 | Cc1n[nH]cc1-c1nc(C(=O)Nc2cn(CC(F)(F)F)nc2-c2ccccn2)cs1 [II-100, 2-(3-methyl-1H-pyrazol-4-yl)-N-(3-(pyridin-2-yl)-1-(2,2,2-trifluoroethyl)-1H-pyrazol-4-yl)thiazole-4-carboxamide] | 
0.0448 | 0.0878 | O=C(Nc1cn([C@H]2CC[C@H](O)C2)nc1-c1ccccn1)c1ccc(-c2cn[nH]c2)o1 [Compound I-136, N-(1-((1S,3S)-3-hydroxycyclopentyl)-3-(pyridin-2-yl)-1H-pyrazol-4-yl)-5-(1H-pyrazol-4-yl)furan-2-carboxamide formate] | 
0.0784 | 0.105 | O=C(Nc1cn(C2CNC2)nc1-c1ccccn1)c1ccc(-c2cn[nH]c2)o1 [Compound I-78, N-{1-(Azetidin-3-yl)-3-(pyridine-2-yl)-1H-pyrazol-4-yl}-5-(1H-pyrazol-4-yl)furan-2-carboxamide, TFA salt] | 
1.86 | 1.02 | CCO[C@H]1C[C@@H](n2cc(NC(=O)c3csc(-c4cn[nH]c4)n3)c(C(N)=O)n2)C1 [II-70, N-(3-carbamoyl-1-((1s,3s)-3-ethoxycyclobutyl)-1H-pyrazol-4-yl)-2-(1H-pyrazol-4-yl)thiazole-4-carboxamide] | 
0.0423 | 0.0977 | CC(C)(C)NC(=O)N1CC(n2cc(NC(=O)c3ccc(-c4cn[nH]c4)o3)c(-c3ccccn3)n2)C1 [Compound I-84, 3-[4-{5-(1H-Pyrazol-4-yl)furan-2-carboxamido}-3-(pyridine-2-yl)-1H-pyrazol-1-yl]-N-(tert-butyl)azetidine-1-carboxamide, free base] | 
 |  | Cn1cc(NC(=O)c2csc(-c3cnn(COP(=O)(O)O)c3)n2)c(-c2ccccn2)n1 [II-38, Potassium (4-(4-((1-methyl-3-(pyridin-2-yl)-1H-pyrazol-4-yl)carbamoyl)thiazol-2-yl)-1H-pyrazol-1-yl)methyl phosphate] | EC50 (IL-23 (p19/p40); Homo sapiens, 18 h, read-out: IL23-p19 ELISA, Dendritic, LPS, 10 pt, EC50 (μM)): 0.771 µM; EC50 (IL-23p19; Homo sapiens, THP-1, 18 h, read-out: IL23-p19 ELISA, THP1-IFNy, LPS, 10 pt EC50 (μM)): 0.505 µM
 |  | Cn1cc(NC(=O)c2ccc(-c3cn[nH]c3)o2)c(-c2ccccn2)n1 [Compound I-77, N-{1-Methyl-3-(pyridine-2-yl)-1H-pyrazol-4-yl}-5-(1H-pyrazol-4-yl)furan-2-carboxamide, free base] | EC50 (IL-23 (p19/p40); PBMC-derived DC cells, IFNγ primed, LPS 1 μg/ml, 18 hours, 10 pt, read-out: IL23-p19 ELISA, Dendritic, LPS, 10 pt, EC50): 0.041 µM; EC50 (IL-23p19; THP-1 cells, IFNγ primed, LPS 1 ug/mL, 18 hours, 10 pt, read-out: IL23-p19 ELISA, THP1-IFNy, LPS, 10 pt EC50): 0.0504 µM
0.0614 | 0.0637 | CCCNC(=O)N1CC(n2cc(NC(=O)c3ccc(-c4cn[nH]c4)o3)c(-c3ccccn3)n2)C1 [Compound I-86, 3-[4-{5-(1H-Pyrazol-4-yl)furan-2-carboxamido}-3-(pyridine-2-yl)-1H-pyrazol-1-yl]-N-propylazetidine-1-carboxamide, free base] | 
0.311 | 0.0333 | O=C(Nc1cn(CC(F)(F)F)nc1-c1ccccn1)c1csc(-c2cn[nH]c2)n1 [II-94, 2-(1H-pyrazol-4-yl)-N-(3-(pyridin-2-yl)-1-(2,2,2-trifluoroethyl)-1H-pyrazol-4-yl)thiazole-4-carboxamide] | 
0.279 | 0.388 | CC(C)n1cc(NC(=O)c2ccc(-c3cn[nH]c3)o2)c(-c2ccccn2)n1 [Compound I-110, N-(1-isopropyl-3-(pyridin-2-yl)-1H-pyrazol-4-yl)-5-(1H-pyrazol-4-yl)furan-2-carboxamide] | 
